The results in this text go back to patent publication US7473524B2, “Mutational profiles in HIV-1 protease correlated with phenotypic drug resistance” (priority 2002, dated 2009).

Some results are limits rather than exact numbers.

Holding throughout (format): cell-based
Test [1] concerns HIV-1/LAI. Description: Antiviral activity in acutely infected MT4 cells, wild-type reference strain. To be noted: for EC50: Human immunodeficiency virus 1, wild-type HIV-1/LAI, no selection, MT4 cells, read-out: median(EC50 (μM)); for Fold resistance: wild-type HIV-1/LAI (reference), ratio of EC50 to wild type. The method, then: (§1) Determination of the antiviral activity of a compound was done as described in Pauwels R. et al. (J Virol Methods 1988; 20(4):309-21). Various concentrations of the test compounds were brought into each well of a flat-bottom microtiter plate. Subsequently, HIV and MT4 cells were added to a final concentration of 200-250 50% cell culture infectious doses (CCID50)/well and 30,000 cells/well, respectively. After 5 days of incubation (37° C., 5% CO2), the cytopathic effect of the replicating virus was determined by the tetrazolium colorimetric MTT method. The dose protecting 50% of the cells from virus cytopathic effect was defined as the EC50, while the dose achieving 90% protection was defined as the EC90.
(§2) The reporter gene assay used MT4-LTR-EGFP cells. Upon infection by HIV-1, the expression of the viral tat product increases transcription from the HIV-1 LTR promoter, leading to high-level expression of the reporter gene product. The assay procedure was similar to the CPE assay except for the end reading of the assay, which was performed on day 3 by measuring the relative fluorescence of treated cultures and comparing this with the relative fluorescence of untreated cultures. The EC50 or the EC90 of a compound was defined as the concentration that inhibited the relative fluorescence by 50% or 90% respectively.
(§3) The in vitro antiviral activity of compound 1 and current reverse transcriptase inhibitors against the selected strains was evaluated in acutely infected MT4 cells. Median EC50 values together with the fold change in resistance (expressed as a ration of EC50) as compared to wild type (FC) are reported.

Test [2] concerns HIV-1/LAI-derived strain L100L/I, Y181C, T386A. Description: Antiviral activity in acutely infected MT4 cells, strain selected at high MOI with compound 1 0.200 μM. To be noted: for EC50: Human immunodeficiency virus 1, MT4, 600 h, day 25, read-out: median(EC50 (μM)); for Fold resistance: day 25, vs wild type. The method, then:
as §1, §2
(§4) Cells are infected at a high MOI (such as 1-50 CCID50/cell), corresponding to >10^9 viral RNA copies/ml. These experiments have been designed to mimic the quasi-species variability that is observed in HIV infected individuals where 10^9 to 10^10 new viruses are produced daily with a mutation rate of 10^−4 to 10^−5. The infected MT4-LTR-EGFP cells are treated with inhibitors at 40, 200 nM, 1 μM and higher for a maximum of 30 days. The cultures are subcultivated and scored on virus-induced fluorescence and cytopathicity every 3-4 days. If full virus breakthrough (100% CPE) is observed the supernatants was collected and stored (new virus strain). If no full CPE was observed the cells were subcultivated and further grown in the presence of the same concentration compound till full virus breakthrough, with a maximum of 30 days. From the emerging virus populations a virus stock was grown in the absence of compounds and titrated. The sensitivities of the isolated strains to HIV-1 RT inhibitors were determined and the strains were genotyped.
as §3

Test [3] concerns HIV-1/LAI-derived strain Y181C, T386A. Description: Antiviral activity in MT4 cells, low MOI strain selected at 0.040 μM, day 15. To be noted: Comp. 1 0.040 μM; for Fold resistance: vs wild type; for EC50: Human immunodeficiency virus 1, MT4, 360 h, read-out: median(EC50 (μM)). The method, then:
as §1, §2
(§5) MT4-LTR-EGFP cells were infected at a multiplicity of infection (MOI) of 0.01 to 0.001 CCID50/cell in the presence of inhibitor. The cultures were sub-cultivated and scored microscopically on virus-induced fluorescence and cytopathogenicity every 3-4 days. The cultures were sub-cultivated in the presence of the same compound concentration until signs of virus replication were observed. The escaping virus was further cultivated in the presence of the same inhibitor concentration in order to enrich the population in resistant variants. If full virus breakthrough was observed the supernatant was collected and stored (new virus strain). Afterwards, the same virus was challenged with a higher compound concentration in order to select variants able to grow in the presence of as high as possible inhibitor concentrations. From the new viruses, a virus stock was grown in the absence of inhibitor.
as §3

Test [4] deals with HIV-1/LAI-derived strain E006E/K, Y181C, M230I, T386A. Description: Antiviral activity in MT4 cells, low MOI strain selected at 0.200 μM, day 22. Conditions: Comp. 1 0.200 μM; for Fold resistance: vs wild type; for EC50: Human immunodeficiency virus 1, MT4, 528 h, read-out: median(EC50 (μM)). The method, then: as §1, §2, §5, §3
The test system of test [5] is HIV-1/LAI-derived strain M164M/I, Y181C, D186D/N, M230M/I, T386A. Description: Antiviral activity in MT4 cells, low MOI strain selected at 0.200 μM, day 28. Conditions: Comp. 1 0.200 μM; for Fold resistance: vs wild type; for EC50: Human immunodeficiency virus 1, MT4, 672 h, read-out: median(EC50 (μM)). The procedure:
as §1, §2, §5, §3

Test [6] has as its system HIV-1/LAI-derived strain Y181C, G190E, T386A. Description: Antiviral activity in MT4 cells, low MOI strain selected at 1.000 μM, day 35. Conditions: for Fold resistance: Comp. 1 1.000 μM, vs wild type; for EC50: Human immunodeficiency virus 1, MT4, Comp. 1 1.000 μM, read-out: median(EC50 (μM)). The procedure: as §1, §2, §5, §3
Test [7] relates to HIV-1/LAI-derived strain I031L/I, Y181C, G190E, T386A. Description: Antiviral activity in MT4 cells, low MOI strain selected at 5.000 μM, day 35. To be noted: for Fold resistance: Comp. 1 5.000 μM, vs wild type; for EC50: Human immunodeficiency virus 1, MT4, Comp. 1 5.000 μM, read-out: median(EC50 (μM)). The method, then:
as §1, §2, §5, §3

The subject of test [8] is HIV-1/LAI-derived strain I031L/I, F116F/L, Y181C, G190E, T386A. Description: Antiviral activity in MT4 cells, low MOI strain selected at 5.000 μM, day 42. Conditions: for Fold resistance: Comp. 1 5.000 μM, vs wild type; for EC50: Human immunodeficiency virus 1, MT4, Comp. 1 5.000 μM, read-out: median(EC50 (μM)). The procedure: as §1, §2, §5, §3
Test [9] has as its system HIV-1/LAI-derived strain I031L, A062A/V, Y181C, G190E, T386A. Description: Antiviral activity in MT4 cells, low MOI strain selected at 15.000 μM, day 42. To be noted: for Fold resistance: Comp. 1 15.000 μM, vs wild type; for EC50: Human immunodeficiency virus 1, MT4, Comp. 1 15.000 μM, read-out: median(EC50 (μM)). The method, then: as §1, §2, §5, §3
Test [10] deals with HIV-1/LAI-derived strain I031L, A062A/V, L074L/V, Y181C, G190E, T386A. Description: Antiviral activity in MT4 cells, low MOI strain selected at 15.000 μM, day 59. Conditions: for Fold resistance: Comp. 1 15.000 μM, vs wild type; for EC50: Human immunodeficiency virus 1, MT4, Comp. 1 15.000 μM, read-out: median(EC50 (μM)). The method, then:
as §1, §2, §5, §3

Test [11] deals with HIV-1/LAI. Description: In vitro selection of resistant strains, high MOI, MT4-LTR-EGFP cells. To be noted: starting strain LAI, 0.200 μM, emerging L100L/I, Y181C, T386A. The procedure:
as §4
(§6) In vitro drug selection experiments starting from wild-type HIV-1/LAI under pressure of compound 1, Efavirenz and Nevirapine have been performed.

Test [12] has as its system HIV-1/LAI. Description: In vitro selection of resistant strains, low MOI, MT4-LTR-EGFP cells. To be noted: Y181C, T386A.
Description: as §5, §6

Regarding `Cc1cc(C#N)cc(C)c1Oc1nc(Nc2ccc(C#N)cc2)nc(N)c1Br` [Compound 1, Benzonitrile, 4-[[6-amino-5-bromo-2-[(4-cyanophenyl)-amino]-4-pyrimidinyl]oxy]-3,5-dimethyl-], the EC50 (as a rule, the concentration at which the effect is half-maximal) came to 0.0014 µM in [1]; 0.11 µM in test [2]; 0.0334 µM in [3]; 0.0298 µM in [4]; 0.0228 µM in [5]; 0.217 µM in [6]. The EC50 in [7] was 0.394 µM; in test [8] it was 0.126 µM; in [9] it was 0.618 µM; in test [10], over 10 µM. For the same molecule, the Fold resistance in [1] worked out at 1 fold; in test [2], 78 fold; in test [3] it was 24 fold; in test [4], 21 fold; in test [5] it was 16 fold; in test [6], 155 fold. Besides, the Fold resistance is reported as 282 fold in [7], 90 fold in test [8], 441 fold in test [9] and >7,143 fold in [10]. For the same molecule, the Days to breakthrough entry in test [11] was “day 25”; in test [12] (0.040 μM) it was “day 15”; in test [12] (0.200 μM, E006E/K, M230I) it was “day 22”; in test [12] (0.200 μM, M164M/I, D186D/N, M230M/I), “day 28”; in test [12] (1.000 μM, G190E) it was “day 35”; in [12] (5.000 μM, I031L/I, F116F/L, G190E) it was “day 42”. The Days to breakthrough entry is on record as “day 35” in test [12] (5.000 μM, I031L/I, G190E); “day 59” in test [12] (15.000 μM, I031L, A062A/V, L074L/V, G190E); “day 42” in test [12] (15.000 μM, I031L, A062A/V, G190E).

In the case of `O=C1Nc2ccc(Cl)cc2[C@@](C#CC2CC2)(C(F)(F)F)O1` [Efavirenz], the EC50 in test [1] is 0.001 µM; in test [2], 0.208 µM; in test [3], 0.0067 µM; in test [4] it was 0.0067 µM; in [5], 0.0072 µM; in [6], 0.0465 µM. The EC50 in test [8] was 0.0442 µM; in [9] it was 0.209 µM; in test [10], over 10 µM. The Fold resistance in test [1] came out at 1 fold; in [2] it was 208 fold; in test [3] it was 7 fold; in test [4] it was 7 fold; in test [5] it was 7 fold; in [6] it was 46 fold. In addition, the Fold resistance in [8] is given as 44 fold; in [9], 209 fold; in test [10] it was >10,000 fold.

In the case of `Cc1ccnc2c1NC(=O)c1cccnc1N2C1CC1` [Nevirapine], the EC50 was 0.0763 µM in test [1]; over 10 µM in [3]; over 10 µM in test [4]; over 10 µM in test [5]; over 10 µM in [6]; over 10 µM in test [7]. For the same molecule, the EC50 in [8], in test [9] and in test [10] was over 10 µM each time. Further, the Fold resistance was 1 fold in test [1]; over 131 fold in test [3]; over 131 fold in [4]; over 131 fold in test [5]; over 131 fold in test [6]; over 131 fold in test [7]. The Fold resistance in test [8], in test [9] and in test [10] was over 131 fold each time.
